Experimental data: US20140248361A1, “HERBAL EXTRACT COMPOSITION AND A PROCESS THEREOF” (PRASAN SOLUTIONS (INDIA) PVT LTD, priority 2012, published 2014)

Legend:
[1] = Oil stability index (Rancimat) of apricot oil; conditions: for Induction Time at 200 ppm: in h
Experimental: (§2) As used herein, ‘Oil Stability Index (OSI)’ is an American Oil Chemists Society (AOCS) approved method that determines the relative resistance of fat and oil samples to oxidation, which is defined by the following equation—
(§3) The oil stability index is determined using the Metrohm's Rancimat (Metrohm 743 Rancimat).
4.0 g of apricot oil is weighed into the reaction vessel. The reaction vessel filled with oil is placed in a heating block. The temperature of the block is maintained at 100° C., 120° C. and 140° C., respectively. The oil is heated at the said temperatures, followed by passing air at a flow rate of 20 L/h. Flowing of air through the oil produces peroxides during primary oxidation and organic acids having low molecular weight, aldehydes and ketones with typical rancid odor during the secondary oxidation phase. These compounds are conveyed by the air flow into measurement vessel containing distilled water where conductivity is being checked continuously by sensor.
The above experiment is repeated by adding 200 ppm of BHA (sample-B), 200 ppm of BHT (sample-B1), 500 ppm of alpha tocopherol (sample-B2) and PRESOL at 200 ppm, 500 ppm and 1000 ppm, respectively to apricot oil.

[2] = Oil stability index (Rancimat) of almond oil; conditions: for Induction Time: in h
Experimental: as §3
4.0 g of almond oil is weighed into the reaction vessel. The reaction vessel filled with oil is placed in a heating block. The temperature of the block is maintained at 100° C., 120° C. and 140° C., respectively. The oil is heated at the said temperatures, followed by passing air at a flow rate of 20 L/h. […] These compounds are conveyed by the air flow into measurement vessel containing distilled water where conductivity is being checked continuously by sensor.
The above experiment is repeated by adding 200 ppm of BHA (sample-B), 200 ppm of BHT (sample-B1), 500 ppm of alpha tocopherol (sample-B2) and PRESOL at 200 ppm, 500 ppm and 1000 ppm, respectively to almond oil. From the above experiment, oxidative stability index of untreated oil (control) and treated oil is calculated and the below table illustrates the induction time and the obtained oxidative stability.

[3] = Oil stability index (Rancimat) of fish oil; conditions: 200 ppm; for Induction Time: in h
Experimental: 4.0 g of fish oil is weighed into the reaction vessel. […] The temperature of the block is maintained at 60° C., 70° C. and 80° C., respectively.

[4] = Peroxide value of fish oil at 10° C.
Experimental: The shelf life is calculated using Rancimat shelf life calculator. The shelf life of oil is studied by carrying out chemical analysis, which include studying peroxide value (represents extent of primary oxidation), Para-anisidine value (represents extent of secondary oxidation) and totox value (reflects total oxidation of oil). […] […] The untreated oil is the control sample without any antioxidant.

[5] = Frying cycle analysis of sunflower oil (total polar compounds); conditions: for Total Polar compounds of sunflower oil: 200 ppm
Experimental: (§1) Palm oil and sunflower oil with antioxidants added to it are obtained from a local refinery. Frying studies are carried out with control oil and by adding TBHQ (Sample A), BHA (Sample B), GT Pulverized (Sample C), ROS (Sample D), GT Cryo grinded (Sample E), GT Crude Extract (Sample F) and PRESOL, respectively to the oils. Experiments are carried out a concentration of 200 ppm and 500 ppm. Fresh potatoes of less reduced sugar content variety are used throughout the experiment which is purchased form a local supermarket. Oil samples are withdrawn from the fryer at the end of every day and stored at −4° C. until it is tested for quality parameters viz, total polar compounds. Polar compounds present in oil and fats are measured by column chromatography using standard method, ES ISO 8420:2012.

[6] = Shelf life of canola oil; conditions: 200 ppm
Experimental: D. Determination of Shelf Life of Canola Oil in the Presence of PRESOL • Shelf life of canola oil is analyzed upon adding 200 ppm of TBHQ (sample-A), BHA (sample-B), green tea extract with 90% polyphenol (sample-C), rosemary extract (sample-D), green tea extract after cryogenic grinding (sample-E), and PRESOL, respectively to canola oil.

[7] = Frying cycle analysis of palm oil (total polar compounds); conditions: palm oil
Experimental: as §1

[8] = Estimation of shelf life of sunflower oil (Rancimat temperature extrapolation); conditions: 200 ppm
Description: (§4) This is an aid for estimating the shelf life of oils and fats. The extrapolation makes use of the relationship between the measured induction time and the temperature given by van't Hoff's law. Several measurements are made at different temperatures and then extrapolated to the storage temperature. The values so obtained allow estimation of the storage stability of the oil or fat containing PRESOL.

[9] = Oil stability index (Rancimat) of sunflower oil; conditions: 200 ppm
Experimental: as §2, §3
4.0 g of sunflower oil is weighed into the reaction vessel. The reaction vessel filled with oil is placed in a heating block. The temperature of the block is maintained at 80° C., 100° C. and 120° C., respectively. The oil is heated at the said temperatures, followed by passing air at a flow rate of 20 L/h. Flowing of air through the oil produces peroxides during primary oxidation and organic acids having low molecular weight, aldehydes and ketones with typical rancid odor during the secondary oxidation phase. These compounds are conveyed by the air flow into measurement vessel containing distilled water where conductivity is being checked continuously by sensor.

[10] = Peroxide value of palm oil on storage
Experimental: (§5) The shelf life of oil is studied by carrying out chemical analysis, which include studying peroxide value (represents extent of primary oxidation), Para-anisidine value (represents extent of secondary oxidation) and totox value (reflects total oxidation of oil). These parameters are determined for 1 kg of untreated oil and treated oil at every 15 days interval for samples stored at ambient temperature and at every 7 days interval for samples stored at 50° C. The treated oil being, the oil upon addition of 200 ppm of TBHQ (sample-A), 200 ppm of BHA (sample-B), 200 ppm and 500 ppm of pulverized green tea extract with 90% polyphenol (sample-C), 200 ppm and 500 ppm of rosemary extract (sample-D), 200 ppm and 500 ppm of green tea extract after cryogenic grinding (sample-E), 200 ppm and 500 ppm of crude green tea extract (sample-F) and PRESOL at 200 ppm and 500 ppm. The untreated oil is the control sample without any antioxidant.
(§6) The threshold limit for per oxide value under which oil can be used for safe consumption is 10 meq of O2/Kg oil. Similarly, the threshold limit of para-anisidine value and Totox value is 10 and 30, respectively.

[11] = Estimation of shelf life of palm oil (Rancimat temperature extrapolation); conditions: 200 ppm
Description: as §4

[12] = Effect of particle size on antioxidant activity (Rancimat induction time) in palm oil; conditions: 200 ppm in palm oil; Rancimat 120° C.
Experimental: (§7) Effect of particle size analysis on antioxidant activity is analysed with the help of Rancimat (Metrohm 743) which gives oxidative stability index based on the induction time (h). Rancimat analysis is carried out at two different temperature in order to set relationship between induction time and temperature of the studies.
(§8) In this, we have analyzed the particle size of samples with the help of Particle Size Analyzer (Microtrac, S3500) and its antioxidant activity with the help of Rancimat (Metrohm 743).

[13] = Totox value of palm oil on storage; conditions: for days after which Totox value crosses threshold limit: threshold 30
Experimental: as §5, §6

[14] = Effect of particle size on antioxidant activity (Rancimat induction time) in sunflower oil; conditions: 200 ppm in sunflower oil; Rancimat 100° C.
Experimental: as §7, §8

[15] = Para-anisidine value of palm oil on storage
Experimental: as §5, §6

[16] = Oil stability index (Rancimat) of palm oil; conditions: 200 ppm
Experimental: as §2, §3
4.0 g of palm oil is weighed into the reaction vessel. The reaction vessel filled with oil is placed in a heating block. The temperature of the block is maintained at 100° C., 120° C. and 140° C., respectively. The oil is heated at the said temperatures, followed by passing air at a flow rate of 20 L/h. Flowing of air through the oil produces peroxides during primary oxidation and organic acids having low molecular weight, aldehydes and ketones with typical rancid odor during the secondary oxidation phase. These compounds are conveyed by the air flow into measurement vessel containing distilled water where conductivity is being checked continuously by sensor.

[17] = ambient temperature, day 0, 200 ppm
[18] = ambient temperature, day 15, 200 ppm
[19] = ambient temperature, day 30, 200 ppm
[20] = ambient temperature, day 45, 200 ppm
[21] = ambient temperature, day 60, 200 ppm
[22] = ambient temperature, day 75, 200 ppm
[23] = ambient temperature, day 90, 200 ppm
[24] = ambient temperature, day 105, 200 ppm
[25] = ambient temperature, day 120, 200 ppm
[26] = ambient temperature, day 135, 200 ppm
[27] = ambient temperature, day 150, 200 ppm
[28] = ambient temperature, day 165, 200 ppm
[29] = ambient temperature, day 180, 200 ppm

**Q.** With Cc1cc(C(C)(C)C)c(O)c(C(C)(C)C)c1 [Sample B1, butylated hydroxyl toluene] as the compound, how does the “Induction Time at 200 ppm” value ([1]; 100° C., 200 ppm) read?
**A.** 26.96

**Q.** And the “Induction Time at 200 ppm” value ([1]; 120° C., 200 ppm)?
**A.** 5.93

**Q.** What about the “Induction Time at 200 ppm” value ([1]; 140° C., 200 ppm) of the same compound?
**A.** 1.49

**Q.** And the “Induction Time” value ([2]; 100° C., 200 ppm)?
**A.** 24.98

**Q.** And the “Induction Time” value ([2]; 120° C., 200 ppm)?
**A.** 5.89

**Q.** What about the “Induction Time” value ([2]; 140° C., 200 ppm) of the same compound?
**A.** 1.48

**Q.** What does the source list for Cc1c(C)c2c(c(C)c1O)CC[C@@](C)(CCC[C@H](C)CCC[C@H](C)CCCC(C)C)O2 [Sample B2, alpha tocopherol]?
**A.** Oxidative Stability Index (OSI) ([3]; 60° C.): 2.81; Induction Time ([3]; 60° C.): 27.68; Oxidative Stability Index (OSI) ([3]; 70° C.): 2.76; Induction Time ([3]; 70° C.): 13.74; Oxidative Stability Index (OSI) ([3]; 80° C.): 2.76; Induction Time ([3]; 80° C.): 6.78; Oxidative Stability Index (OSI) ([1]; 100° C., 500 ppm): 0.82; Induction Time at 200 ppm ([1]; 100° C., 500 ppm): 22.06; Oxidative Stability Index (OSI) ([1]; 120° C., 500 ppm): 0.86; Induction Time at 200 ppm ([1]; 120° C., 500 ppm): 5.06; Oxidative Stability Index (OSI) ([1]; 140° C., 500 ppm): 0.89; Induction Time at 200 ppm ([1]; 140° C., 500 ppm): 1.32; Oxidative Stability Index (OSI) ([2]; 100° C., 500 ppm): 1.11; Induction Time ([2]; 100° C., 500 ppm): 24.51; Oxidative Stability Index (OSI) ([2]; 120° C., 500 ppm): 1.13; Induction Time ([2]; 120° C., 500 ppm): 5.73; Oxidative Stability Index (OSI) ([2]; 140° C., 500 ppm): 1.04; Induction Time ([2]; 140° C., 500 ppm): 1.43; days after which peroxide value crosses the threshold limit of 8 meq/kg ([4]; 200 ppm): 21 days; Peroxide value ([4]; day 0, 200 ppm): 1.74; Peroxide value ([4]; day 3, 200 ppm): 2.13; Peroxide value ([4]; day 6, 200 ppm): 3.33; Peroxide value ([4]; day 9, 200 ppm): 4.71; Peroxide value ([4]; day 12, 200 ppm): 5.41; Peroxide value ([4]; day 15, 200 ppm): 6.82; Peroxide value ([4]; day 18, 200 ppm): 7.84; Peroxide value ([4]; day 21, 200 ppm): 9.02; Peroxide value ([4]; day 24, 200 ppm): 10.32; Peroxide value ([4]; day 27, 200 ppm): 12.02; Peroxide value ([4]; day 30, 200 ppm): 13.01; Peroxide value ([4]; day 33, 200 ppm): 15.44; Peroxide value ([4]; day 36, 200 ppm): 17.16; Peroxide value ([4]; day 39, 200 ppm): 18.94; Peroxide value ([4]; day 42, 200 ppm): 20.86; Peroxide value ([4]; day 45, 200 ppm): 25.09; Peroxide value ([4]; day 48, 200 ppm): 28.71; Peroxide value ([4]; day 51, 200 ppm): 33.89; Peroxide value ([4]; day 54, 200 ppm): 39.01; Peroxide value ([4]; day 57, 200 ppm): 44.14; Peroxide value ([4]; day 60, 200 ppm): 49.22; Peroxide value ([4]; day 63, 200 ppm): 50.06; Peroxide value ([4]; day 66, 200 ppm): 51.22; Peroxide value ([4]; day 69, 200 ppm): 50.85; Peroxide value ([4]; day 72, 200 ppm): 50.13; Peroxide value ([4]; day 75, 200 ppm): 49.72

**Q.** Which results are given for COc1ccc(O)c(C(C)(C)C)c1 [Sample B, butylated hydroxyanisole]?
**A.** Total Polar compounds of sunflower oil ([5]; frying cycle 0): 3.515; Total Polar compounds of sunflower oil ([5]; frying cycle 8): 6.958; Total Polar compounds of sunflower oil ([5]; frying cycle 16): 14.124; Total Polar compounds of sunflower oil ([5]; frying cycle 24): 20.105; Total Polar compounds of sunflower oil ([5]; frying cycle 32): 26.085; Total Polar compounds of sunflower oil ([5]; frying cycle 40): 31.692; frying cycle after which threshold limit for total polar compounds is crossed ([5]; sunflower oil): 40 cycle; Shelf Life (No. Of Days) [6]: 37 days; frying cycle after which threshold limit for total polar compounds is crossed [7]: 40 cycle; Shelf Life (days) at 30° C. [8]: 87.2 days; Induction Time ([9]; 80° C.): 50.39 h; Oxidative Stability Index (OSI) ([9]; 80° C.): 1.38; Induction Time ([9]; 100° C.): 13.33 h; Oxidative Stability Index (OSI) ([9]; 100° C.): 1.43; Induction Time ([9]; 120° C.): 2.64 h; Oxidative Stability Index (OSI) ([9]; 120° C.): 1.12; Peroxide value ([10]; 50° C., day 0, 200 ppm): 0.482; Peroxide value ([10]; 50° C., day 7, 200 ppm): 4.735; Peroxide value ([10]; 50° C., day 15, 200 ppm): 9.973; Peroxide value ([10]; 50° C., day 22, 200 ppm): 13.062; Peroxide value ([10]; 50° C., day 30, 200 ppm): 16.45; Peroxide value ([10]; 50° C., day 37, 200 ppm): 35.595; Peroxide value ([10]; 50° C., day 45, 200 ppm): 60.884; Peroxide value ([10]; 50° C., day 52, 200 ppm): 51.15; Peroxide value ([10]; 50° C., day 60, 200 ppm): 42.269; Peroxide value ([10]; 50° C., day 67, 200 ppm): 34.974; Peroxide value ([10]; 50° C., day 75, 200 ppm): 25.576; Peroxide value ([10]; 50° C., day 82, 200 ppm): 11.31; Peroxide value ([10]; 50° C., day 90, 200 ppm): 15.231; Peroxide value [10, 17]: 0.465; Peroxide value [10, 18]: 0.868; Peroxide value [10, 19]: 1.691; Peroxide value [10, 20]: 2.684; Peroxide value [10, 21]: 4.034; Peroxide value [10, 22]: 4.748; Peroxide value [10, 23]: 5.034; Peroxide value [10, 24]: 5.316; Peroxide value [10, 25]: 6.307; Peroxide value [10, 26]: 7.887; Peroxide value [10, 27]: 8.617; Peroxide value [10, 28]: 11.307; Peroxide value [10, 29]: 12.75; days after which peroxide value crosses threshold limit ([10]; ambient temperature, threshold 10 meq of O2/Kg oil): 165 days; Oxidative Stability Index (OSI) ([1]; 100° C., 200 ppm): 1.08; Induction Time at 200 ppm ([1]; 100° C., 200 ppm): 29.16; Oxidative Stability Index (OSI) ([1]; 120° C., 200 ppm): 1.13; Induction Time at 200 ppm ([1]; 120° C., 200 ppm): 6.66; Oxidative Stability Index (OSI) ([1]; 140° C., 200 ppm): 1.06; Induction Time at 200 ppm ([1]; 140° C., 200 ppm): 1.57; Oxidative Stability Index (OSI) ([2]; 100° C., 200 ppm): 1.14; Induction Time ([2]; 100° C., 200 ppm): 25.14; Oxidative Stability Index (OSI) ([2]; 120° C., 200 ppm): 1.21; Induction Time ([2]; 120° C., 200 ppm): 6.11; Oxidative Stability Index (OSI) ([2]; 140° C., 200 ppm): 1.11; Induction Time ([2]; 140° C., 200 ppm): 1.52; Shelf Life (days) at 30° C. [11]: 260.9 days; Induction Period (h) of PO at 120° C. [12]: 9.88 h; days after which Totox value crosses threshold limit ([13]; 50° C.): 180 days; Totox value [13, 17]: 3.497; Totox value [13, 18]: 4.338; Totox value [13, 19]: 6.561; Totox value [13, 20]: 8.268; Totox value [13, 21]: 10.827; Totox value [13, 22]: 12.449; Totox value [13, 23]: 13.181; Totox value [13, 24]: 14.088; Totox value [13, 25]: 16.114; Totox value [13, 26]: 19.368; Totox value [13, 27]: 20.994; Totox value [13, 28]: 26.783; Totox value [13, 29]: 29.993; days after which Totox value crosses threshold limit ([13]; ambient temperature): 180 days; Induction Period (h) of SFO 100° C. [14]: 13.33 h; Para-anisidine value ([15]; 50° C., day 0, 200 ppm): 2.69; Para-anisidine value ([15]; 50° C., day 7, 200 ppm): 3.186; Para-anisidine value ([15]; 50° C., day 15, 200 ppm): 4.011; Para-anisidine value ([15]; 50° C., day 22, 200 ppm): 4.204; Para-anisidine value ([15]; 50° C., day 30, 200 ppm): 5.542; Para-anisidine value ([15]; 50° C., day 37, 200 ppm): 5.617; Para-anisidine value ([15]; 50° C., day 45, 200 ppm): 5.794; Para-anisidine value ([15]; 50° C., day 52, 200 ppm): 5.827; Para-anisidine value ([15]; 50° C., day 60, 200 ppm): 6.165; Para-anisidine value ([15]; 50° C., day 67, 200 ppm): 6.22; Para-anisidine value ([15]; 50° C., day 75, 200 ppm): 6.269; Para-anisidine value ([15]; 50° C., day 82, 200 ppm): 6.503; Para-anisidine value ([15]; 50° C., day 90, 200 ppm): 6.657; Para-anisidine value [15, 17]: 2.566; Para-anisidine value [15, 18]: 2.602; Para-anisidine value [15, 19]: 3.18; Para-anisidine value [15, 20]: 2.899; Para-anisidine value [15, 21]: 2.759; Para-anisidine value [15, 22]: 2.952; Para-anisidine value [15, 23]: 3.113; Para-anisidine value [15, 24]: 3.455; Para-anisidine value [15, 25]: 3.499; Para-anisidine value [15, 26]: 3.593; Para-anisidine value [15, 27]: 3.759; Para-anisidine value [15, 28]: 4.169; Para-anisidine value [15, 29]: 4.493; Induction Time ([16]; 100° C.): 43.33 h; Oxidative Stability Index (OSI) ([16]; 100° C.): 1.04; Induction Time ([16]; 120° C.): 9.88 h; Oxidative Stability Index (OSI) ([16]; 120° C.): 1.02; Induction Time ([16]; 140° C.): 2.51 h; Oxidative Stability Index (OSI) ([16]; 140° C.): 1.02
